Laboratory results from ChEMBL document CHEMBL1201862, “PubChem BioAssay data set” (2004).
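Tested at 5 concentrations; 48 h exposure; 96-well plates; endpoints linearly interpolated, else capped at highest concentration. GI50: concentration for 50% inhibition of growth.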 The source made the active and inactive calls. Rule as the data show it: active = GI50 up to about 1.1 µM and inactive = higher.

What was measured:
Experiment in all cases: NCI anticancer screen, dose series, 48 h
[1] = tested on: A549
[2] = tested on: HCT-116
[3] = tested on: HOP-92
[4] = tested on: Hs-578T
[5] = tested on: KM12
[6] = tested on: M14
[7] = tested on: MCF7
[8] = tested on: MDA-MB-435
[9] = tested on: MOLT-4
[10] = tested on: NCI-H23
[11] = tested on: NCI/ADR-RES
[12] = tested on: SK-MEL-28
[13] = tested on: SNB-19
[14] = tested on: SW-620
[15] = tested on: UACC-62
[16] = tested on: Malme-3M
[17] = tested on: NCI-H522

SMILES	GI50 [1]	GI50 [2]	GI50 [3]	GI50 [4]	GI50 [5]	GI50 [6]	GI50 [7]	GI50 [8]	GI50 [9]	GI50 [10]	GI50 [11]	GI50 [12]	GI50 [13]	GI50 [14]	GI50 [15]	GI50 [16]	GI50 [17]
CC1(C)CC(=O)c2c(nc3ccc4ccccc4c3c2-c2ccc(NC(=O)CCCC(=O)Nc3ccc(-c4c5c(nc6ccc7ccccc7c46)CC(C)(C)CC5=O)cc3)cc2)C1	> 100 µM (inactive)	> 100 µM (inactive)	> 100 µM (inactive)	60.3 µM (inactive)	> 100 µM (inactive)	> 100 µM (inactive)	> 100 µM (inactive)	> 100 µM (inactive)	> 100 µM (inactive)	> 100 µM (inactive)	> 100 µM (inactive)	> 100 µM (inactive)	> 100 µM (inactive)	> 100 µM (inactive)	> 100 µM (inactive)		
Cc1ccc(Nc2nc(NNC(=O)Cc3ccccc3)nc(NNC(=O)c3ccncc3)n2)cc1	> 10 µM (inactive)		> 10 µM (inactive)	> 10 µM (inactive)	> 10 µM (inactive)	> 10 µM (inactive)	> 10 µM (inactive)		> 10 µM (inactive)	> 10 µM (inactive)	> 10 µM (inactive)	> 10 µM (inactive)		> 10 µM (inactive)	9.82 µM (inactive)	> 10 µM (inactive)	
CC(Cc1ccc(Cl)cc1Cl)NO (stereo not drawn)	> 100 µM (inactive)	83.6 µM (inactive)		80 µM (inactive)	> 100 µM (inactive)	> 100 µM (inactive)	> 100 µM (inactive)	> 100 µM (inactive)	83.6 µM (inactive)	> 100 µM (inactive)	> 100 µM (inactive)	> 100 µM (inactive)	> 100 µM (inactive)	> 100 µM (inactive)	> 100 µM (inactive)	> 100 µM (inactive)	66.5 µM (inactive)
CC(C)C(O)(C(=O)OCN1C(=O)C2C3C=CC(C2C1=O)C1C2C(=O)N(COC(=O)C(O)(C(C)C)C(C)O)C(=O)C2C31)C(C)O (stereo not drawn)	> 100 µM (inactive)	> 100 µM (inactive)		> 100 µM (inactive)	> 100 µM (inactive)	> 100 µM (inactive)	> 100 µM (inactive)	> 100 µM (inactive)	> 100 µM (inactive)	> 100 µM (inactive)	> 100 µM (inactive)	> 100 µM (inactive)	> 100 µM (inactive)	> 100 µM (inactive)	> 100 µM (inactive)	> 100 µM (inactive)	> 100 µM (inactive)
COc1ccc(-c2c(C#N)c(N)n(C3OCC(O)C(O)C3O)c(=S)c2C#N)cc1 (stereo not drawn)	> 100 µM (inactive)			> 100 µM (inactive)	> 100 µM (inactive)	> 100 µM (inactive)	> 100 µM (inactive)	> 100 µM (inactive)	> 100 µM (inactive)	> 100 µM (inactive)	> 100 µM (inactive)	> 100 µM (inactive)	> 100 µM (inactive)	> 100 µM (inactive)	> 100 µM (inactive)	> 100 µM (inactive)	> 100 µM (inactive)
COc1cc(CC(C)NC(C)=O)cc(OC)c1 (stereo not drawn)	> 100 µM (inactive)	> 100 µM (inactive)		> 100 µM (inactive)	> 100 µM (inactive)	> 100 µM (inactive)	> 100 µM (inactive)	> 100 µM (inactive)	> 100 µM (inactive)	> 100 µM (inactive)	> 100 µM (inactive)	> 100 µM (inactive)	> 100 µM (inactive)	> 100 µM (inactive)	> 100 µM (inactive)	> 100 µM (inactive)	> 100 µM (inactive)
CCOC(=O)/C(C(=O)Nc1ccc(Cl)cc1)=C(/N)N1CCOCC1	> 100 µM (inactive)	> 100 µM (inactive)		> 100 µM (inactive)	> 100 µM (inactive)	> 100 µM (inactive)	> 100 µM (inactive)	> 100 µM (inactive)	> 100 µM (inactive)	> 100 µM (inactive)	> 100 µM (inactive)	> 100 µM (inactive)	> 100 µM (inactive)	> 100 µM (inactive)	> 100 µM (inactive)	> 100 µM (inactive)	> 100 µM (inactive)
CCOC(=O)NNC(=O)NCc1cccc(CNC(=O)NNC(=O)OCC)c1	> 100 µM (inactive)	> 100 µM (inactive)		> 100 µM (inactive)	> 100 µM (inactive)	> 100 µM (inactive)	> 100 µM (inactive)	> 100 µM (inactive)	> 100 µM (inactive)	> 100 µM (inactive)	> 100 µM (inactive)	> 100 µM (inactive)	> 100 µM (inactive)	> 100 µM (inactive)	> 100 µM (inactive)	> 100 µM (inactive)	> 100 µM (inactive)
Cc1nc(O)nc(N/N=C/c2ccc(Cl)cc2)c1C(=O)NC(C)(CO)CO		> 100 µM (inactive)	> 100 µM (inactive)	> 100 µM (inactive)	> 100 µM (inactive)	> 100 µM (inactive)	> 100 µM (inactive)	> 100 µM (inactive)	> 100 µM (inactive)	> 100 µM (inactive)	> 100 µM (inactive)	> 100 µM (inactive)	> 100 µM (inactive)	> 100 µM (inactive)	> 100 µM (inactive)	> 100 µM (inactive)	
NCOC(=O)Cc1ccc(Br)cc1	> 100 µM (inactive)	> 100 µM (inactive)	> 100 µM (inactive)	> 100 µM (inactive)		> 100 µM (inactive)	> 100 µM (inactive)		17.4 µM (inactive)	> 100 µM (inactive)	> 100 µM (inactive)	> 100 µM (inactive)	> 100 µM (inactive)	> 100 µM (inactive)	> 100 µM (inactive)	> 100 µM (inactive)	> 100 µM (inactive)
O=C1CC2(CCNCC2)C(=O)N1N1CCCCC1	> 100 µM (inactive)	> 100 µM (inactive)	> 100 µM (inactive)	> 100 µM (inactive)	> 100 µM (inactive)	> 100 µM (inactive)	> 100 µM (inactive)		> 100 µM (inactive)	> 100 µM (inactive)	> 100 µM (inactive)	> 100 µM (inactive)	> 100 µM (inactive)	> 100 µM (inactive)	> 100 µM (inactive)	> 100 µM (inactive)	> 100 µM (inactive)
C/C(=C1/N=C(c2ccccc2)OC1=O)c1ccccc1	> 100 µM (inactive)	> 100 µM (inactive)	> 100 µM (inactive)	46.3 µM (inactive)	61.4 µM (inactive)	> 100 µM (inactive)	82 µM (inactive)	87.3 µM (inactive)	95.1 µM (inactive)	> 100 µM (inactive)		> 100 µM (inactive)	> 100 µM (inactive)	57.5 µM (inactive)	> 100 µM (inactive)	53.2 µM (inactive)	85.3 µM (inactive)
CC1SC(=O)SC1C (stereo not drawn)	> 100 µM (inactive)	> 100 µM (inactive)		> 100 µM (inactive)	> 100 µM (inactive)	> 100 µM (inactive)	> 100 µM (inactive)	> 100 µM (inactive)	> 100 µM (inactive)		> 100 µM (inactive)	> 100 µM (inactive)	> 100 µM (inactive)	> 100 µM (inactive)			> 100 µM (inactive)
COc1ccc2c(O)c1-c1c(OC)ccc(c1O)SSc1ccc(OC)c(c1O)-c1c(OC)ccc(c1O)SS2	24.5 µM (inactive)	48.2 µM (inactive)	23 µM (inactive)	54.8 µM (inactive)	37.2 µM (inactive)	> 100 µM (inactive)	> 100 µM (inactive)	> 100 µM (inactive)	> 100 µM (inactive)			34.4 µM (inactive)	60.4 µM (inactive)	16 µM (inactive)		51.2 µM (inactive)	3.58 µM (inactive)
CC1CN=C(N(C)C(=O)Nc2ccc(Cl)cc2)S1 (stereo not drawn)	16.7 µM (inactive)	4.89 µM (inactive)	29.9 µM (inactive)	25.5 µM (inactive)	4.72 µM (inactive)	1.72 µM (inactive)	32.6 µM (inactive)		14 µM (inactive)	21.3 µM (inactive)	1.9 µM (inactive)	16.5 µM (inactive)	49 µM (inactive)	20.4 µM (inactive)		53.1 µM (inactive)	
COC1OC2COC(c3ccccc3)OC2C(O)C1OC(=S)c1ccccc1 (stereo not drawn)	0.607 µM (active)		> 100 µM (inactive)	62.1 µM (inactive)		46.2 µM (inactive)	36.3 µM (inactive)	1.31 µM (inactive)	70.6 µM (inactive)	59.7 µM (inactive)	36.6 µM (inactive)	26.9 µM (inactive)	> 100 µM (inactive)	45.3 µM (inactive)	31 µM (inactive)	21.2 µM (inactive)	
Oc1ccc(/C=N/N=c2\[nH][nH]/c(=N\N=C\c3ccc(O)cc3O)c3ccccc23)c(O)c1	0.315 µM (active)	0.313 µM (active)		0.29 µM (active)	0.275 µM (active)	0.318 µM (active)	0.274 µM (active)	0.314 µM (active)	0.0865 µM (active)	0.326 µM (active)	0.427 µM (active)		0.473 µM (active)	0.385 µM (active)	0.234 µM (active)		
COc1ccc(N[S+]([O-])C2CCCCC2)cc1 (stereo not drawn)	> 100 µM (inactive)	> 100 µM (inactive)		> 100 µM (inactive)	> 100 µM (inactive)	> 100 µM (inactive)	> 100 µM (inactive)	> 100 µM (inactive)	> 100 µM (inactive)	> 100 µM (inactive)	> 100 µM (inactive)	> 100 µM (inactive)	> 100 µM (inactive)	> 100 µM (inactive)		> 100 µM (inactive)	> 100 µM (inactive)
